From patent publication US20070219180A1, “Muscle Relaxtion Accelerator and Therapeutic Agent for Muscular Tissue Diseases Such as Muscle Relaxation Failure” (priority 2004, published 2007)

System: binding of troponin I to the actin-tropomyosin complex
Experiment: Experiment 4 and comparison example: co-precipitation (binding) of troponin I with the actin-tropomyosin complex in the presence of EGTA
Parameters: species or system swine
Conditions: for Precipitate of troponin I (ratio to the sample without drug): 10 mM EGTA, 100,000×g 120 min 25° C.
Description: The actin-tropomyosin complex and the troponin C-I complex are usually detected by analyzing the precipitate obtained by ultracentrifugation of a mixture containing the actin-tropomyosin complex and the troponin C-I complex for 120 minutes at 100,000×g at 25° C. The binding of the troponin C-I complex to the actin-tropomyosin complex in muscle tissues can be confirmed by the detected actin-tropomyosin complex and the detected troponin C-I complex. For example, when a mixture containing the actin-tropomyosin complex and the troponin C-I complex is ultracentrifuged in the presence of EGTA as a calcium chelating agent (in other words, in the absence of calcium ions), the actin-tropomyosin complex and the troponin C-I complex combine each other to precipitate together. Detection of troponin I in the precipitate using SDS-gel electrophoresis allows confirmation that the precipitate contains a complex formed by the actin-tropomyosin complex and the troponin C-I complex.
A precipitate due to binding of the actin-tropomyosin complex and troponin I is usually not formed when a mixture containing the actin-tropomyosin complex, troponin and propranolol (a β-blocker) used as a therapeutic agent for heart failure is ultracentrifuged at 100,000×g for 120 minutes 25° C.
Swine muscle-derived actin, chicken gizzard-derived tropomyosin and swine myocardium-derived troponin used in this experiment were purchased from Sigma-Aldrich Corporation, and other unspecified reagents used in this experiment were purchased from Wako Pure Chemical Industries Ltd.
A 500 μl sample was prepared by adding 4.2 μg of actin, 2.1 μg of tropomyosin and 14 μg of troponin to 500 μl of a reaction solution containing 60 mM KCl, 20 mM MOPS (3-morpholinopropanesulfonic acid), 2 mM of MgCl2, 0.05 μg of pepstatin A, and 15 mM 2-mercaptoethanol. After centrifugation of this sample at 2,000×g for 10 minutes at 25° C., the precipitate was removed and the resulting supernatant was distributed to separate test tubes containing 10 mM of EGTA, and each tube was determined as a test sample.
Each test sample was reacted for 120 minutes at 25° C. and centrifuged at 100,000×g for 120 minutes at 25° C., and the supernatants were removed. After reaction solution was gently added to the removed precipitate so as not to suspend the precipitate, the precipitate was again removed by suction, washed, and determined as a test precipitate.
A sample buffer for polyacrylamide gel electrophoresis (SDS-PAGE) was added to each washed test precipitate and mixed well to suspend the test precipitate. The resulting suspension was electrophoresized on a gel (PAG MINI “No. 1” 10/20) for about 1 hour at 40 mA. After electrophoresis, the suspension was silver-stained using “Daiichi” 2D-silver staining reagent (Daiichi Pure Chemicals Co., Ltd), and washed with distilled water and dried. The amount of precipitate in each silver-stained protein band obtained by gel electrophoresis was quantitated using a densitometer.
The amounts of precipitate of troponin I in the second to fifth test precipitates were calculated as ratios of the amount of precipitate of troponin I in the first test precipitate, which was obtained without the compound (the concentration of the compound was 0 M).
The affinity of troponin I for the actin-tropomyosin complex was measured using the same method as in Experiment 4, but using propranolol (a β-blocker which is used as a therapeutic agent for heart failure) for comparison with the compound in the invention.
A 500 μl sample was prepared by adding 4.2 μg of actin, 2.1 μg of tropomyosin and 14 μg of troponin I to 500 μl of a reaction solution containing 60 mM KCl, 20 mM MOPS (3-morpholinopropanesulfonic acid), 2 mM MgCl2, 0.05 μg of pepstatin A, and 15 mM 2-mercaptoethanol. […]

CC(C)NCC(O)COc1cccc2ccccc12 (centres unmarked) [Propranolol, propranolol] was tested, and the “Precipitate of troponin I (ratio to the sample without drug)” value (drug concentration 10^−4 mol) was 1.1, the “Precipitate of troponin I (ratio to the sample without drug)” value (drug concentration 10^−5 mol) was 0.9 and the “Precipitate of troponin I (ratio to the sample without drug)” value (drug concentration 10^−6 mol) was 1.1. For the same compound, the “Precipitate of troponin I (ratio to the sample without drug)” value (drug concentration 10^−7 mol) was 0.9 and the “Effect on the bonding strength of troponin I to the actin-tropomyosin complex (co-precipitation)” value (ultracentrifugation 100,000×g, 120 minutes, 25° C.) was “does not enhance the bonding strength of troponin to the actin-tropomyosin complex”.
